# In patent US20060199821A1, “Heterocyclic amides and sulfonamides” (Scios, Inc., priority 2003, published 2006):
# Target: p38-α kinase (Homo sapiens, UniProt Q16539)
# Experiment: Human whole blood assay for p38 kinase inhibition, diluted (1:10) whole blood, LPS-induced TNF-α by ELISA
# Type: cell-based
# Conditions: LPS-stimulated TNF-α production
# Protocol: For each of the assay procedures described below, the TNF-α production correlates to the activity of p38-α kinase.
# A. Human Whole Blood Assay for p38 Kinase Inhibition
# Venous blood is collected from healthy male volunteers into a heparinized syringe and is used within 2 hours of collection. Test compounds are dissolved in 100% DMSO and 1 μl aliquots of drug concentrations ranging from 0 to 1 mM are dispensed into quadruplicate wells of a 24-well microtiter plate (Nunclon Delta SI, Applied Scientific, So. San Francisco, Calif.). Whole blood is added at a volume of 1 ml/well and the mixture is incubated for 15 minutes with constant shaking (Titer Plate Shaker, Lab-Line Instruments, Inc., Melrose Park, Ill.) at a humidified atmosphere of 5% CO2 at 37° C. Whole blood is cultured either undiluted or at a final dilution of 1:10 with RPMI 1640 (Gibco 31800+NaHCO3, Life Technologies, Rockville, Md. and Scios, Inc., Sunnyvale, Calif.). At the end of the incubation period, 10 μl of LPS (E. coli 0111:B4, Sigma Chemical Co., St. Louis, Mo.) is added to each well to a final concentration of 1 or 0.1 μg/ml for undiluted or 1:10 diluted whole blood, respectively. The incubation is continued for an additional 2 hours. The reaction is stopped by placing the microtiter plates in an ice bath and plasma or cell-free supernates are collected by centrifugation at 3000 rpm for 10 minutes at 4° C. The plasma samples are stored at −80° C. until assayed for TNF-α levels by ELISA, following the directions supplied by Quantikine Human TNF-α assay kit (R&D Systems, Minneapolis, Minn.).
# IC50 values are calculated using the concentration of inhibitor that causes a 50% decrease as compared to a control. IC50 values can be determined with curve-fitting plots available with common software packages. Approximate IC50 values can be calculated using formula: IC50 (app)=A×i/(1−A)
# where A=fractional activity and i=total inhibitor concentration.
# IC50 values are calculated using the concentration of inhibitor that causes a 50% decrease as compared to a control.
# Chain of p38-α kinase (Q16539 whole entry): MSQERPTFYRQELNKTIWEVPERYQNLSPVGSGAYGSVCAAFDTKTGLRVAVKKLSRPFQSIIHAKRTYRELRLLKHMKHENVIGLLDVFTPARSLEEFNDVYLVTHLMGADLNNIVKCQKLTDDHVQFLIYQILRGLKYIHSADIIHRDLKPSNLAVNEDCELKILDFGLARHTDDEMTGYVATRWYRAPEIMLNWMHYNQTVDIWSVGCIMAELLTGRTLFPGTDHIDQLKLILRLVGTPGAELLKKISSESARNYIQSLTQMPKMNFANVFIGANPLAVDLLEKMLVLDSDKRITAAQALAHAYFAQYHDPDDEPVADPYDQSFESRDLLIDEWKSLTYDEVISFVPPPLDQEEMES
row,IC50 [nM],Structure (SMILES)
1,< 1000,"CCN(C(=O)c1ccc2ccccc2c1)c1ccnc(N[C@@H](C)c2ccccc2)n1 [Example 20, Naphthalene-2-carboxylic acid ethyl-[2-(1S-phenyl-ethylamino)-pyrimidin-4-yl]-amide]"
2,< 1000,C[C@H](Nc1nccc(N(Cc2ccc(F)cc2)C(=O)c2ccc3ccccc3c2)n1)c1ccccc1 [Example 70]
3,< 1000,CC(C)N(C(=O)c1ccc2ccccc2c1)c1ccnc(N[C@@H](C)c2ccccc2)n1 [Example 73]
4,< 1000,COCCN(C(=O)c1ccc2ccccc2c1)c1ccnc(N[C@@H](C)c2ccccc2)n1 [Example 76]
5,< 1000,C[C@H](Nc1nccc(N(C)C(=O)c2ccc3ccccc3c2)n1)c1ccccc1 [Example 77]
6,< 1000,C[C@H](Nc1nccc(N(Cc2cccnc2)C(=O)c2ccc3ccccc3c2)n1)c1ccccc1 [Example 83]
7,< 1000,CCN(C(=O)c1ccc2c(c1)CCO2)c1ccnc(N[C@@H](C)c2ccccc2)n1 [Example 84]
